Test results as given in PubChem BioAssay AID2060606 (Molecular Pharmacology Branch, DTP, NCI, 2025).
Several values for one entry are separate records, joined by “and”; a condition that tells them apart may be missing. Identical values can stand only once.

Tested on: 922993-354-T-J3-PDC complex spheroids, viability, % test/control
Test: Anticancer human tumor 922993-354-T-J3-PDC patient-derived endometrial carcinoma cell line growth inhibition [CLK]
Settings: for viability, T/C: stronger effect = lower value
In short: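 Multi-cell-type spheroids combined patient-derived tumor cells with HUVEC endothelial cells and human mesenchymal stem cells. Paired agents were dosed in half-log steps down from about clinical Cmax, or from 10 microM where Cmax was unknown.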

[1] = curve of first compound, second compound 0.0316 µM
[2] = curve of first compound, second compound 0.1 µM
[3] = curve of first compound, second compound 0.316 µM
[4] = curve of first compound, second compound 1 µM
[5] = curve of first compound, second compound 3.16 µM
[6] = curve of first compound, second compound 10 µM
[7] = second compound 0.0316 µM, first compound 0.0316 µM
[8] = second compound 0.0316 µM, first compound 0.1 µM
[9] = second compound 0.0316 µM, first compound 0.316 µM
[10] = second compound 0.0316 µM, first compound 1 µM
[11] = second compound 0.0316 µM, first compound 3.16 µM
[12] = second compound 0.0316 µM, first compound 10 µM
[13] = second compound 0.1 µM, first compound 0.0316 µM
[14] = second compound 0.1 µM, first compound 0.1 µM
[15] = second compound 0.1 µM, first compound 0.316 µM
[16] = second compound 0.1 µM, first compound 1 µM
[17] = second compound 0.1 µM, first compound 3.16 µM
[18] = second compound 0.1 µM, first compound 10 µM
[19] = second compound 0.316 µM, first compound 0.0316 µM
[20] = second compound 0.316 µM, first compound 0.1 µM
[21] = second compound 0.316 µM, first compound 0.316 µM
[22] = second compound 0.316 µM, first compound 1 µM
[23] = second compound 0.316 µM, first compound 3.16 µM
[24] = second compound 0.316 µM, first compound 10 µM
[25] = second compound 1 µM, first compound 0.0316 µM
[26] = second compound 1 µM, first compound 0.1 µM
[27] = second compound 1 µM, first compound 0.316 µM
[28] = second compound 1 µM, first compound 1 µM
[29] = second compound 1 µM, first compound 3.16 µM
[30] = second compound 1 µM, first compound 10 µM
[31] = second compound 3.16 µM, first compound 0.0316 µM
[32] = second compound 3.16 µM, first compound 0.1 µM
[33] = second compound 3.16 µM, first compound 0.316 µM
[34] = second compound 3.16 µM, first compound 1 µM
[35] = second compound 3.16 µM, first compound 3.16 µM
[36] = second compound 3.16 µM, first compound 10 µM
[37] = second compound 10 µM, first compound 0.0316 µM
[38] = second compound 10 µM, first compound 0.1 µM
[39] = second compound 10 µM, first compound 0.316 µM
[40] = second compound 10 µM, first compound 1 µM
[41] = second compound 10 µM, first compound 3.16 µM
[42] = second compound 10 µM, first compound 10 µM
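Further: spheroids exposed to the agents for 7 days before readout.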

With `O=c1[nH]cc(F)c(=O)[nH]1` + CN1CCN(c2cc(C(=O)Nc3cc4cc(-c5cnn(C)c5)ccc4cn3)ccn2)CC1 the IC50 [1] was 7.95 µM, the IC50 [2] was 4.39 µM and the IC50 [3] was < 0.0316 µM. For the same molecule, the IC50 [4] was < 0.0316 µM, the IC50 [5] was < 0.0316 µM and the IC50 [6] was < 0.0316 µM. For the same molecule, the viability, T/C [7] was 104%, the viability, T/C [8] was 99.5% and the viability, T/C [9] was 95.2%. It also gave a viability, T/C [10] of 114%, a viability, T/C [11] of 65.6% and a viability, T/C [12] of 46.1%. It also gave a viability, T/C [13] of 102%, a viability, T/C [14] of 87.2% and a viability, T/C [15] of 94.1%. It also gave a viability, T/C [16] of 80.5%, a viability, T/C [17] of 54.2% and a viability, T/C [18] of 38.9%. For the same molecule, the viability, T/C [19] was 34.3%, the viability, T/C [20] was 34.3% and the viability, T/C [21] was 33.3%. For the same molecule, the viability, T/C [22] was 31.3%, the viability, T/C [23] was 38% and the viability, T/C [24] was 24.6%. The viability, T/C [25] was 0.11%, the viability, T/C [26] was 0.38% and the viability, T/C [27] was 0.11%. The viability, T/C [28] was 0.78%, the viability, T/C [29] was 1.96% and the viability, T/C [30] was 1.27%. It also gave a viability, T/C [31] of 0.09%, a viability, T/C [32] of 0.09% and a viability, T/C [33] of 1.19%. The viability, T/C [34] was 0.76%, the viability, T/C [35] was 0.73% and the viability, T/C [36] was 2.29%. For the same molecule, the viability, T/C [37] was 0.09%, the viability, T/C [38] was 0.11% and the viability, T/C [39] was 0.93%. For the same molecule, the viability, T/C [40] was 0.13%, the viability, T/C [41] was 2.73% and the viability, T/C [42] was 2.68%.
For `CC1(C)CCC(CN2CCN(c3ccc(C(=O)NS(=O)(=O)c4ccc(NCC5CCOCC5)c([N+](=O)[O-])c4)c(Oc4cnc5[nH]ccc5c4)c3)CC2)=C(c2ccc(Cl)cc2)C1`, the viability, T/C (compound 0.0316 µM) was 96.7% and 84.1%, the viability, T/C (compound 0.1 µM) was 90.2% and 99.4% and the viability, T/C (compound 0.316 µM) was 110% and 101%. The viability, T/C (compound 1 µM) was 123% and 95.5%, the viability, T/C (compound 3.16 µM) was 85.6% and 121% and the viability, T/C (compound 10 µM) was 36.7% and 82.9%. The IC50 (curve of compound) was 7.31 µM and > 10 µM.
Molecule `O=c1[nH]cc(F)c(=O)[nH]1` + CNC(=O)c1ccc(Nc2nc(OC3CCCC3)c3c(-c4ccc5nc(C)oc5c4)c[nH]c3n2)c(OC)c1 has an IC50 [1] of 7.51 µM, an IC50 [2] of 4.99 µM and an IC50 [3] of 4.06 µM. The IC50 [4] was < 0.0316 µM, the IC50 [5] was < 0.0316 µM and the IC50 [6] was < 0.0316 µM. It also gave a viability, T/C [7] of 110%, a viability, T/C [8] of 104% and a viability, T/C [9] of 103%. For the same molecule, the viability, T/C [10] was 103%, the viability, T/C [11] was 75.5% and the viability, T/C [12] was 41.6%. It also gave a viability, T/C [13] of 91.3%, a viability, T/C [14] of 119% and a viability, T/C [15] of 106%. For the same molecule, the viability, T/C [16] was 98.2%, the viability, T/C [17] was 64.3% and the viability, T/C [18] was 28.3%. It also gave a viability, T/C [19] of 68%, a viability, T/C [20] of 64% and a viability, T/C [21] of 57.7%. It also gave a viability, T/C [22] of 60.7%, a viability, T/C [23] of 56.5% and a viability, T/C [24] of 29.9%. It also gave a viability, T/C [25] of 34%, a viability, T/C [26] of 40.4% and a viability, T/C [27] of 33.7%. The viability, T/C [28] was 31.7%, the viability, T/C [29] was 32.9% and the viability, T/C [30] was 23.9%. For the same molecule, the viability, T/C [31] was 33.4%, the viability, T/C [32] was 37.3% and the viability, T/C [33] was 31.5%. For the same molecule, the viability, T/C [34] was 29.5%, the viability, T/C [35] was 28.5% and the viability, T/C [36] was 20.8%. The viability, T/C [37] was 35.1%, the viability, T/C [38] was 30.4% and the viability, T/C [39] was 29%. The viability, T/C [40] was 29%, the viability, T/C [41] was 31.2% and the viability, T/C [42] was 19.7%.
With `C=C(F)C(=O)N1CCN(c2nc(OCC3CCCN3C)nc3c2CCN(c2cccc4cccc(Cl)c24)C3)CC1CC#N` (stereo not drawn) the viability, T/C (compound 0.0316 µM) was 96.9% and 91.5%, the viability, T/C (compound 0.1 µM) was 97.8% and 100% and the viability, T/C (compound 0.316 µM) was 93.3% and 104%. For the same molecule, the viability, T/C (compound 1 µM) was 91.2% and 92%, the viability, T/C (compound 3.16 µM) was 79.4% and 67.9% and the viability, T/C (compound 10 µM) was 2.9% and 0.21%. For the same molecule, the IC50 (curve of compound) was 4.9 µM and 4.28 µM.
